Test results taken from PubChem BioAssay AID489023 (Sanford-Burnham Center for Chemical Genomics, 2010).
pIC50: −log10 of the molar value. Calls of active or inactive are those of the source. The rule behind the calls is not given here.

What follows are molecules tested on 697B cells, BCR-induced NF-kB luciferase reporter luminescence (assay: B-cell receptor NF-kB reporter inhibition – 697B cells, luciferase luminescence, dose response (AID 489023)).

SMILES | pIC50 | IC50
O=C(c1cc2nc(-c3ccccc3)cc(-c3ccccc3)n2n1)N1CCN(C(=O)c2ccco2)CC1 | 5.06 | –
COC(=O)C1=C(c2ccc(-c3ccccc3)c(F)c2)C[C@@H]2CC[C@H]1N2C(=O)N1CCCC1 | – | 73.9 µM (inactive)
Cn1nc(-c2ccc(N3CCOCC3)c(NS(=O)(=O)c3ccccc3)c2)c2ccccc2c1=O | – | > 80 µM (inactive)
Cc1noc(C)c1CSc1nc2[nH]ncc2c(=O)n1-c1ccccc1 | – | > 80 µM (inactive)
C=CCn1c(O)c(C(C)=NC(C)c2ccccc2)c(=O)[nH]c1=O (centres undefined) | – | > 80 µM (inactive)
CCn1c(=O)cc(OCC(=O)N(C)C2CCCCC2)c2ccccc21 | – | > 80 µM (inactive)
CCOC(=O)N1CCN(c2ncnc3c2[nH]c2ccc(OC)cc23)CC1 | – | 60 µM (inactive)
Cn1c(=O)n(C)c2cc(NS(=O)(=O)c3ccccc3)ccc21 | – | 38.3 µM (inactive)
CCCCOc1ccc(NC(=O)C(=O)NCCCn2ccnc2)cc1 | 4.96 | –
C[C@H]1CCC/C=C/C2C[C@H](O)CC2[C@H](O)/C=C/C(=O)O1 (some centres undefined) | – | > 80 µM (inactive)
O=S(=O)(c1cnc(Cl)c(Cl)c1)N1CCCc2ccccc21 | – | 33.8 µM (inactive)
CC1=CC(C)(C)Nc2ccc(OC(=O)CN3C(=O)c4ccccc4C3=O)cc21 | 5.33 | –
Cc1nn(-c2ccc(N3CCCCC3)nn2)c(C)c1CCC(=O)Nc1ccccc1F | – | > 80 µM (inactive)
CCOC(=O)C1CCN(c2ncnc3c2cnn3-c2ccc(OC)cc2)CC1 | – | > 80 µM (inactive)
CCOC(=O)CNC(=O)CSc1nnc(NC(=O)c2ccc(C)cc2)s1 | 5.16 | –
Cc1ccc(-c2c[n+]3c(n2-c2ccccc2)SCC3)cc1 | – | > 80 µM (inactive)
CCCc1nc2c(C)cc(-c3nc4ccccc4n3C)cc2n1Cc1ccc(-c2ccccc2C(=O)O)cc1 | – | 72.5 µM (inactive)
O=C(NCCC1CCCCN1S(=O)(=O)c1ccc(Cl)cc1)C(=O)NCc1ccncc1 (centres undefined) | 5.37 | –
Cc1cc(C)c2nc(NC(=O)[C@@H](NC(=O)c3cccc(S(=O)(=O)N4CCOCC4)c3)C(C)C)sc2c1 | 4.80 | –
CC(C)Oc1ccc(C(=O)Nc2ccc(N(C)C)cc2)cc1 | – | 61.3 µM (inactive)
CC(C)(C)C(=O)/C(=C/c1ccncc1)n1cncn1 | 5.50 | –
CCC(=O)N1c2ccccc2C(N(C(C)=O)c2ccccc2)CC1C (centres undefined) | – | 61 µM (inactive)
CCN(CC)c1ccc(/C=N/N=C(c2ccccc2)c2ccccc2)c(O)c1 | – | > 80 µM (inactive)

SMILES | pIC50 | IC50
COc1ccc(Cc2nc(-c3ccc(NC(=O)c4cccnc4)cc3)no2)cc1 | – | > 80 µM (inactive)
COc1ccc(-n2nnnc2S(=O)(=O)CC(=O)N2CCCCC2)cc1 | 6.10 | –
COc1ccc(C=C(C(C)=O)C(C)=O)cc1OC | – | 57.7 µM (inactive)
C/C(=N\Nc1nc(Nc2ccccc2)nc(N2CCOCC2)n1)c1cccs1 | 5.06 | –
Cc1nc2cc(-c3cccc(F)c3)nn2c(C)c1CCC(=O)N1CCC2(CC1)OCCO2 | – | 49.5 µM (inactive)
CCOc1ccc(-c2nnc(SCC(=O)NC3CC3)o2)cc1 | – | 62 µM (inactive)
COc1ccccc1/C=C1\SC(=S)N(CCC(=O)NC2=NCCS2)C1=O | – | > 80 µM (inactive)
Cn1cnc([N+](=O)[O-])c1Sc1ccc([N+](=O)[O-])cc1 | 5.44 | –
Cn1c(=O)cc(OCCCC(=O)NCc2ccccn2)c2ccccc21 | – | > 80 µM (inactive)
COc1ccc(OCc2cccc(C(=O)NN)c2)cc1 | 5.61 | –
N=c1c2c(n(Cc3ccc(Cl)c(Cl)c3)c3c1CCC3)CCCC2 | – | 31.1 µM (inactive)
Cc1ccc(-c2nn3c(C)nnc3c3ccccc23)cc1S(=O)(=O)NCCN1CCOCC1 | – | 31.5 µM (inactive)
Cc1ccc(Sc2cc(NCCCO)c([N+](=O)[O-])c3nonc23)cc1 | – | > 80 µM (inactive)
CCOC(=O)c1nn(-c2ccccc2)c(C#N)c1NC(=O)c1nn(CC)cc1Br | – | > 80 µM (inactive)
Cc1cc(C)cc(NC(=O)Nc2ccc(NC(=O)c3ccccc3O)cc2)c1 | – | > 80 µM (inactive)
C(=N\Nc1nc(Nc2ccccc2)nc(N2CCOCC2)n1)/c1c[nH]c2ccccc12 | > 6.80 | –
O=C(Nc1cccc(Oc2ccc3c(c2)C(=O)NC3=O)c1)c1cccs1 | – | > 80 µM (inactive)
Cc1ccc(O)c(NC(=O)COc2cc(C)ccc2C)c1 | – | > 80 µM (inactive)
Cc1ccc(/C=C2\SC(=S)N(CCCC(=O)Nc3ccc(O)cc3)C2=O)cc1 | 6.57 | –
CCN(CC)S(=O)(=O)c1ccc(N2CCOCC2)c(NC(=O)c2[nH]c(C)c(C(C)=O)c2C)c1 | – | 27.3 µM (inactive)
CCSc1ncc(Cl)c(C(=O)Nc2sc3c(c2C(=O)NCc2cccnc2)CCCC3)n1 | – | > 80 µM (inactive)
Cc1[nH]c2ccccc2c1/C=N/Nc1nc(Nc2ccc(F)cc2)nc(N2CCOCC2)n1 | 5.91 | –
CCCC(=O)Nc1ccc(Sc2ccc([N+](=O)[O-])cc2)cc1 | – | 69.3 µM (inactive)

SMILES | pIC50 | IC50
O=C(N/N=C/c1ccc(Cl)cc1Cl)c1ccc(-n2cnnn2)cc1 | – | > 80 µM (inactive)
CC(=C/c1ccco1)/C=N/NC(=O)CSc1nnc(SCc2ccc(C)cc2)s1 | – | > 80 µM (inactive)
O=C(O)CCn1c(O)c(C=C2N=c3ccccc3=N2)sc1=S | 4.77 | –
Cc1ccc(-c2nc(C(=O)NCC3CCCO3)cc3c2[nH]c2ccccc23)cc1 (centres undefined) | 4.89 | –
COc1ccc(C2=NCc3nnc(C)n3-c3ccc(Cl)cc32)cc1Cl | – | 43.6 µM (inactive)
Fc1ccc(C2=Nn3c(nnc3-c3n[nH]c4c3CCC4)SC2)cc1 | – | 34.6 µM (inactive)
CCOc1ccc(-c2cc(CCCC(=O)NCc3ccco3)no2)cc1 | 5.18 | –
Cc1ccc(C2(c3ccc(C)cc3)CC2C(=O)Nc2ccc([N+](=O)[O-])cc2O)cc1 (centres undefined) | – | 73.4 µM (inactive)
CC(C)c1ccc(/C=C2\SC(=S)N(CCC(=O)N3CCCCC3CCO)C2=O)cc1 (centres undefined) | 5.79 | –
Cc1ccc(S(=O)(=O)Nc2ccc3c(c2)n(C)c(=O)n3C)cc1 | – | > 80 µM (inactive)
CCn1c(=O)cc(SCC(=O)N2CCN(C(=O)c3ccco3)CC2)c2ccccc21 | – | > 80 µM (inactive)
Cc1nc([N+](=O)[O-])c(Sc2nc3ccc([N+](=O)[O-])cc3[nH]2)n1Cc1ccccc1 | 5.06 | –
Cc1c(CCC(=O)N2CCC(C(=O)O)(c3ccccc3)CC2)c(=O)oc2cc3oc4c(c3cc12)CCCC4 | – | > 80 µM (inactive)
CN(C)S(=O)(=O)c1ccc(NC(=O)N2CCN(c3ccccc3)CC2)cc1 | – | > 80 µM (inactive)
C[C@H]1CCC/C=C/[C@@H]2C[C@H](O)C[C@H]2[C@H](O)/C=C/C(=O)O1 | – | > 80 µM (inactive)
O=C(CCCN1C(=O)/C(=C/c2ccccc2Cl)SC1=S)Nc1ccccn1 | 5.40 | –
COc1ccc(-n2c(-c3ccc(Cl)cc3)c[n+]3c2CCc2ccccc2-3)cc1 | – | > 80 µM (inactive)
COCCNC(=O)CSCc1nc(-c2ccc(SC)cc2)oc1C | 5.34 | –
O=C(CN1C(=O)c2ccccc2S1(=O)=O)N1CCc2ccccc21 | 5.91 | –
CC(C)c1[nH]nc2c1C(c1ccco1)C(C#N)=C(N)O2 (centres undefined) | – | > 80 µM (inactive)
CC(C)(C)c1ccc(-n2ncc3c2CCCC3NC(=O)C2(C(N)=O)CC2)cc1 (centres undefined) | – | > 80 µM (inactive)
N=c1c2c(n(Cc3ccc(Cl)cc3Cl)c3c1CCC3)CCCC2 | – | 40.3 µM (inactive)
COc1cc(OC)cc(-c2cc3nc(C)c(CCC(=O)NCc4ccccc4)c(C)n3n2)c1 | 5.33 | –
